Biological target: T1, FSHR (Homo sapiens, UniProt P23945)
T1 construct: expressed in transfected cells; host or cells: CHO (Cho-FSHR-LUC-1-1-43)
T1 sequence (P23945 18-695): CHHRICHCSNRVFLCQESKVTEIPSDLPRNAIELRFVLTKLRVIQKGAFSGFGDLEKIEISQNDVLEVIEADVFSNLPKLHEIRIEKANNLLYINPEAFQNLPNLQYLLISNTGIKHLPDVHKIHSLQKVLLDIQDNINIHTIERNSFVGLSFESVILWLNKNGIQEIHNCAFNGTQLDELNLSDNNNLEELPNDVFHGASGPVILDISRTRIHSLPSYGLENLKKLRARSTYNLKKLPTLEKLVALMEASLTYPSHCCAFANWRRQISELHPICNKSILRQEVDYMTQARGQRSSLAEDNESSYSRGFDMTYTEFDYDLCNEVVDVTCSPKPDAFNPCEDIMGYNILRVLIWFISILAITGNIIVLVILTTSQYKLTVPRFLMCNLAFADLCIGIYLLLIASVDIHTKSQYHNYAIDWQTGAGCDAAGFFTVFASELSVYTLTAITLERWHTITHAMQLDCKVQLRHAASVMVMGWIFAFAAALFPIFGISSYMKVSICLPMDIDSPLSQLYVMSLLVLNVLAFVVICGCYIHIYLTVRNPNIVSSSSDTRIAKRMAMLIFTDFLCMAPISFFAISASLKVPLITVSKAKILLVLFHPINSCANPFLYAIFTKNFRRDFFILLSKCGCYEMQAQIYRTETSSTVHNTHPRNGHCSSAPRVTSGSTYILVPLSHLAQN
Assay: EC50 of cyclic AMP production in CHO FSHR cells + EC20 FSH (Assay A)
Type: cell-based
Conditions: not given
Procedure: EC50 of Cyclic AMP Production in CHO FSHR Cells+EC20 FSH (Assay A)
2500 Cho-FSHR-LUC-1-1-43 cells were plated per well in 5 μl of phenol red free DMEM/F12+1% FBS. Cells were plated in 384 well, solid white low volume plates (Greiner 784075) by Multidrop. Cells were assayed by adding 100 μl of 2×EC20 FSH/IBMX in DMEM/F12+0.1% BSA) by Multidrop to 2 μl of test compound stamped in 384 well plates (compounds are diluted 1:50). The final FSH concentration was […], and the final IBMX concentration was 200 μM. The compound plate map was as follows: Column 1: 2 μl of DMSO; Column 2: 2 μl of DMSO; Columns 3-12 and 13-24: 2 μl of test compound, diluted 1:4 in 100% DMSO, or 2 μl of FSH, diluted 1:4 in DMEM/F12+0.1% BSA. The starting concentration for FSH was 50 nM (final concentration was 0.5 nM). Furthermore, Column 23 contained 2 μl of EC100 FSH reference (100×) (diluted in DMEM/F12+0.1% BSA) at a final concentration of 0.5 nM, and Column 24 contained 2 μl of 1 mM AS707664/2 reference compound 2. 5 μl of compound+EC20 FSH mixture were transferred to cell plates (1:2 dilution into 5 μl of cell media) The plates were incubated at 37° C. for 1 h. 10 μl of mixed HTRF (CisBio #62AM4PEC) reagents were added per well and incubated at room temperature for 1 h. The plates were read on Envision using the cAMP HTRF—low volume 384 well protocol. The readout was the calculated fluorescence ratio (665 nm/620 nm). Values given in percent (%) indicate the percental effect (response) at a certain concentration of agonist relative to the maximum response of the FSH standard.

Which EC50 does the source give for COCC(C)(C)N(C)C(=O)c1nn(-c2ccsc2)c2c1COc1cc(OC)c(C=C(C)C)cc1-2 [Compound 31] here?
Its EC50 is less than 100 nM.

Same assay, conditions: CHO FSHR cells + EC20 FSH, cAMP HTRF; read-out: Assay A: EC50 of cyclic AMP production

Which EC50 does the source give for [2H]C([2H])([2H])OCC(C)(C)NC(=O)c1nn(-c2ccsc2)c2c1COc1cc(OC)c(C=C(C)C)cc1-2 [Compound 59] here?
Its EC50 is 100 to 1000 nM.

With COc1cc2c(cc1-c1cn[nH]c1)-c1c(c(C(=O)NCCN3CCOC3=O)nn1-c1ccsc1)CO2 [Compound 62, 7-Methoxy-8-(1H-pyrazol-4-yl)-1-thiophen-3-yl-1,4-dihydro-chromeno[4,3-c]pyrazole-3-carboxylic acid [2-(2-oxo-oxazolidin-3-yl)-ethyl]-amide] as the compound, how does the EC50 read?
Its EC50 is 100 to 1000 nM.

COc1cc2c(cc1C=C(C)C)-c1c(c(C(=O)NC3CCCC(C(=O)OC(C)(C)C)C3)nn1-c1ccsc1)CO2 (stereo not shown) [Compound 15, 3-{[7-Methoxy-8-(2-methyl-propenyl)-1-thiophen-3-yl-1,4-dihydro-chromeno[4,3-c]pyrazole-3-carbonyl]-amino}-cyclohexanecarboxylic acid tert-butyl ester] was tested. Which EC50 did it give?
The EC50 was greater than 5000 nM.

Which EC50 does the source give for [2H]C([2H])([2H])OCC1(C)CCCN1C(=O)c1nn(-c2ccsc2)c2c1COc1cc(OC)ccc1-2 (stereo not shown) [Compound 183, (2-Methoxymethyl-2-methyl-pyrrolidin-1-yl)-(7-methoxy-1-thiophen-3-yl-1,4-dihydro-chromeno[4,3-c]pyrazol-3-yl)-methanone] here?
The EC50 was 100 to 1000 nM.

For [2H]C([2H])([2H])OCC1(C)CCCN1C(=O)c1nn(-c2ccsc2)c2c1COc1cc(OC)c(C=C(C)C)cc1-2 (stereo not shown) [Compound 51], which EC50 is on record?
The EC50 was less than 100 nM.

COc1cc2c(cc1-c1cnc(C)s1)-c1c(c(C(=O)N(C)C(C)(C)C)nn1-c1ccsc1)CO2 [Compound 73, 7-Methoxy-8-(2-methyl-thiazol-5-yl)-1-thiophen-3-yl-1,4-dihydro-chromeno[4,3-c]pyrazole-3-carboxylic acid tert-butyl-methyl-amide] was tested. Which EC50 did it give?
The EC50 was less than 100 nM.

How did the EC50 turn out when [2H]C([2H])([2H])N(CCN1CCOC1=O)C(=O)c1nn(-c2ccsc2)c2c1COc1cc(OC)c(C=C(C)C)cc1-2 [Compound 56] was run?
The EC50 was less than 100 nM.

With COc1cc2c(cc1-c1cn(C)cn1)-c1c(c(C(=O)N(C)C(C)(C)C)nn1-c1ccsc1)CO2 [Compound 129, 7-Methoxy-8-(1-methyl-1H-imidazol-4-yl)-1-thiophen-3-yl-1,4-dihydro-chromeno[4,3-c]pyrazole-3-carboxylic acid tert-butyl-methyl-amide] as the compound, how does the EC50 read?
Its EC50 is less than 100 nM.

How did the EC50 turn out when COc1cc2c(cc1C=C(C)C)-c1c(c(C(=O)N3CCC34COC4)nn1-c1ccsc1)CO2 [Compound 44, [7-Methoxy-8-(2-methyl-propenyl)-1-thiophen-3-yl-1,4-dihydro-chromeno[4,3-c]pyrazol-3-yl]-(6-oxa-1-aza-spiro[3.3]hept-1-yl)-methanone] was run?
Its EC50 is 100 to 1000 nM.

How did the EC50 turn out when COc1cc2c(cc1-c1ccnn1C)-c1c(c(C(=O)NC3(C)COC3)nn1-c1ccsc1)CO2 [Compound 109, 7-Methoxy-8-(2-methyl-2H-pyrazol-3-yl)-1-thiophen-3-yl-1,4-dihydro-chromeno[4,3-c]pyrazole-3-carboxylic acid (3-methyl-oxetan-3-yl)-amide] was run?
The EC50 was 100 to 1000 nM.

For COc1cc2c(cc1C=C(C)C)-c1c(c(C(=O)N3CCOCC3)nn1-c1ccsc1)CO2 [Compound 117, [7-Methoxy-8-(2-methyl-propenyl)-1-thiophen-3-yl-1,4-dihydro-chromeno[4,3-c]pyrazol-3-yl]-morpholin-4-yl-methanone], which EC50 is on record?
Its EC50 is 100 to 1000 nM.

For COc1cc2c(cc1C#N)-c1c(c(C(=O)N3CCOCC3(C)C)nn1-c1ccsc1)CO2 [Compound 86, 3-(3,3-Dimethyl-morpholine-4-carbonyl)-7-methoxy-1-thiophen-3-yl-1,4-dihydro-chromeno[4,3-c]pyrazole-8-carbonitrile], which EC50 is on record?
The EC50 was less than 100 nM.

COc1cc2c(cc1-c1ccn(C)n1)-c1c(c(C(=O)N3CCNCC34CC4)nn1-c1ccsc1)CO2 [Compound 171, (4,7-Diaza-spiro[2.5]oct-4-yl)-[7-methoxy-8-(1-methyl-1H-pyrazol-3-yl)-1-thiophen-3-yl-1,4-dihydro-chromeno[4,3-c]pyrazol-3-yl]-methanone] was tested. Which EC50 did it give?
Its EC50 is 100 to 1000 nM.

COc1cc2c(cc1C=C(C)C)-c1c(c(C(=O)N3CCCC3(C)CO)nn1-c1ccsc1)CO2 (stereo not shown) [Compound 48, (2-Hydroxymethyl-2-methyl-pyrrolidin-1-yl)-[7-methoxy-8-(2-methyl-propenyl)-1-thiophen-3-yl-1,4-dihydro-chromeno[4,3-c]pyrazol-3-yl]-methanone] was tested. Which EC50 did it give?
Its EC50 is less than 100 nM.

For COc1cc2c(cc1CC(C)C)-c1c(c(C(=O)NC3(CO)COC3)nn1-c1ccsc1)CO2 [Compound 141, 8-Isobutyl-7-methoxy-1-thiophen-3-yl-1,4-dihydro-chromeno[4,3-c]pyrazole-3-carboxylic acid (3-hydroxymethyl-oxetan-3-yl)-amide], which EC50 is on record?
Its EC50 is 1000 to 5000 nM.

For COc1cc2c(cc1C=C(C)C)-c1c(c(C(=O)NCCCNC(C)=O)nn1-c1ccsc1)CO2 [Compound 8, 7-Methoxy-8-(2-methyl-propenyl)-1-thiophen-3-yl-1,4-dihydro-chromeno[4,3-c]pyrazole-3-carboxylic acid (3-acetylamino-propyl)-amide], which EC50 is on record?
Its EC50 is greater than 5000 nM.

For COc1cc2c(cc1C=C(C)C)-c1c(c(C(=O)N3CCCC(C(N)=O)CC3)nn1-c1ccsc1)CO2 (stereo not shown) [Compound 43, 1-[7-methoxy-8-(2-methyl-propenyl)-1-thiophen-3-yl-1,4-dihydro-chromeno[4,3-c]pyrazole-3-carbonyl]-azepane-4-carboxylic Acid Amide], which EC50 is on record?
The EC50 was less than 100 nM.

COc1cc2c(cc1-c1cnoc1)-c1c(c(C(=O)N(C)C(C)(C)C)nn1-c1ccsc1)CO2 [Compound 72, 8-Isoxazol-4-yl-7-methoxy-1-thiophen-3-yl-1,4-dihydro-chromeno[4,3-c]pyrazole-3-carboxylic acid tert-butyl-methyl-amide] was tested. Which EC50 did it give?
Its EC50 is less than 100 nM.

How did the EC50 turn out when COc1cc2c(cc1-c1cncn1C)-c1c(c(C(=O)N(C)C(C)(C)C)nn1-c1ccsc1)CO2 [Compound 130, 7-Methoxy-8-(3-methyl-3H-imidazol-4-yl)-1-thiophen-3-yl-1,4-dihydro-chromeno[4,3-c]pyrazole-3-carboxylic acid tert-butyl-methyl-amide] was run?
The EC50 was less than 100 nM.

For COc1cc2c(cc1OC(C)C)-c1c(c(C(=O)N(C)CCCN(C)C(=O)C3CCC3)nn1-c1ccsc1)CO2 [Compound 30], which EC50 is on record?
The EC50 was 100 to 1000 nM.

COc1cc2c(cc1-c1cnn(CCN(C)C)c1)-c1c(c(C(=O)N3CCOCC3(C)C)nn1-c1ccsc1)CO2 [Compound 203, {8-[1-(2-Dimethylamino-ethyl)-1H-pyrazol-4-yl]-7-methoxy-1-thiophen-3-yl-1,4-dihydro-chromeno[4,3-c]pyrazol-3-yl}-(3,3-dimethyl-morpholin-4-yl)-methanone] was tested. Which EC50 did it give?
The EC50 was 100 to 1000 nM.

How did the EC50 turn out when COc1cc2c(cc1-c1ccnn1C)-c1c(c(C(=O)NC3(CO)COC3)nn1-c1ccsc1)CO2 [Compound 111, 7-Methoxy-8-(2-methyl-2H-pyrazol-3-yl)-1-thiophen-3-yl-1,4-dihydro-chromeno[4,3-c]pyrazole-3-carboxylic acid (3-hydroxymethyl-oxetan-3-yl)-amide] was run?
Its EC50 is 100 to 1000 nM.

For CNC(=O)c1nn(-c2ccsc2)c2c1COc1cc(OC)c(-c3cn[nH]c3)cc1-2 [Compound 22, 7-Methoxy-8-(1H-pyrazol-4-yl)-1-thiophen-3-yl-1,4-dihydro-chromeno[4,3-c]pyrazole-3-carboxylic Acid Methylamide], which EC50 is on record?
The EC50 was 1000 to 5000 nM.

How did the EC50 turn out when COc1cc2c(cc1C=C(C)C)-c1c(c(C(=O)N3CCCC(NC(=O)OC(C)(C)C)CC3)nn1-c1ccsc1)CO2 (stereo not shown) [Compound 35, {1-[7-Methoxy-8-(2-methyl-propenyl)-1-thiophen-3-yl-1,4-dihydro-chromeno[4,3-c]pyrazole-3-carbonyl]-azepan-4-yl}-carbamic acid tert-butyl ester] was run?
Its EC50 is 1000 to 5000 nM.
